The values that follow come from ChEMBL document CHEMBL5230147, “Click, release, and fluoresce: In-vivo generation of CO with concomitant synthesis of a fluorescent reporter” (Bioorg Med Chem, 2021).

What is called half-life is how long it takes for the measured level to halve. Low readings indicate rapid decline, high ones slow decline.

Data set [1] in a line: Half life in C57BL/6 mouse at 100 mg/kg, ip at pH 7.4 measured after 24 hrs. The class given is ADME, organism-based. The note with it: in vivo.
A short description of data set [2]: Half life in rat at 0.1 mg/kg, IG at pH 7.4 measured for 24 hrs. The following applies: in vivo, po. The class given is ADME, organism-based.
A short description of data set [3]: Half life in rat at 0.1 mg/kg, IG at pH 1.2 measured for 24 hrs. The class given is ADME, organism-based. The following applies: in vivo, po.
The subject of a further data set is Mus musculus. In words: Anti-colitis activity against TNBS-induced C57BL/6 mouse model assessed as survival rate at 15 mg/kg, ip. The class given is functional.
The nature of data set [4]: Half life in mouse at 15 mg/kg, ip at pH 7.4 measured at 24 to 72 hrs. The class given is ADME, organism-based. The following applies: in vivo, time 24-72 hrs.

Molecules are shown by their SMILES.

`C#CCN(C)C(=O)C1=C2C(=C(c3ccccc3)C1=O)c1cccc3cccc2c13` registered a half-life in data set [1] of 1.9 min. Consider `C#CC(C)(C)NC(=O)C1=C2C(=C(c3ccccc3)C1=O)c1cccc3cccc2c13`, for which the half-life in data set [2] was found to be 24.1 min; in data set [3], 17.1 min. `C#CCCN(C(=O)C1=C2C(=C(c3ccccc3)C1=O)c1cccc3cccc2c13)C(C)C`: the Activity in the data set with Mus musculus turned out to be 75%. This compound gave a half-life in data set [4] of 72 min.
